Here are results for two compounds from US20170027936A1, “ABL1 INHIBITOR FOR TREATING AND PREVENTING OCULAR NEOVASCULARISATION” (UCL BUSINESS PLC, priority 2014, published 2017).

The subject of experiment [1] is BCR-ABL-expressing Ba/F3 and bone marrow cells. As to conditions: murine xenograft models of leukaemia; cited from earlier work.
The subject of experiment [2] is pathological angiogenesis in the retina. To be noted: OIR, P17 retina, daily Imatinib after return to normoxia (P13-16), versus vehicle.
For the next experiment, the system named is HDMEC. The experiment in a line: Actin remodelling and cell spreading of HDMEC plated on FN (phalloidin staining). As to conditions: Imatinib-treated. The format is cell-based, human. The method, then:
(§1) (A-C) ABL1 kinase activity is essential for PXN phosphorylation. […] In (A), pPXN Y118 (green) is shown together with phalloidin (red) and DAPI (blue) on the left hand side and as single channel in grey scale on the right hand side; scale bar 20 μm. pPXN pixel intensity was quantified in (B) and expressed as fold change in knockdown cells at the indicated time points relative to control cells at 0 min; mean±SEM of four independent experiments.
(§2) Human microvascular dermal EC (HDMEC; Promocell, UK) and human umbilical vein EC (HUVEC; Promocell) were cultured in standard conditions and transfected with Lipofectamine RNAIMAX (Life Technologies). Primary mouse lung EC (MLEC) were isolated from mice between one and two months of age by magnetic-activated cell sorting (MACS) with PECAM antibodies (BD Biosciences, UK). […] In some experiments, cells were stimulated with VEGF165 50 ng/ml for the indicated times.
(§3) Immunofluorescence staining of HDMEC and p6 mouse retinas was analysed with a L5M710 laser scanning confocal microscope.

The next experiment deals with PXN Y118 phosphorylation. As to the kind of experiment: PXN Y118 phosphorylation in HDMEC plated on FN (immunofluorescence, immunoblotting). As to conditions: 10 μM Imatinib 30 min before and during plating on FN, versus vehicle. The class given is cell-based, human. On the procedure:
as §1, §2, §3
(Immunoblotting shows a protein as a band on a membrane.)

The test system of the next experiment is retinal vasculature. The experiment in a line: Physiological retinal angiogenesis in the perinatal mouse (IB4/FN labelled P6 retinal flatmounts). The format is in vivo.
Text: FIG. 7 ABL1 is essential for vessel spouting and branching in the retina. […] Vascular extension from the retinal centre to the vascular front is indicated with red arrows. […] Asterisks indicate statistical significance: **P<0.01.
(C,D) Reduced astrocyte, but not vascular FN deposition in Imatinib-treated retinas. […] Note reduced FN staining of astrocyte processes ahead of the vascular front (A), whilst the vasculature was prominently stained for FN.
Examples of abnormally long and wide sprouts without lateral protrusions or connections are indicated with arrows. (G) Quantification of filopodial bursts per vascular front length as an indicator of tip cell number, and quantification of branchpoints behind the vascular front; vehicle, n=7; P4/5, n=3; P2-5, n=4; ***P<0.001 versus control; ^♯P<0.05 for P4/5 versus P2-5treatment.
All animal procedures were performed in accordance with institutional and UK Home Office guidelines. We used C57/616 wild type mice (Charles River Laboratories), littermate wild type and heterozygous Nrp/-null mutants and mice carrying two floxed conditional null Nrp1 alleles (Nrp1^fl/fl) combined with Pdgfb-iCre-ERT2-Egfp with codon-improved Cre on a C57/616 background. For tamoxifen-induction of CRE-mediated recombination, 0.2 mg of tamoxifen (SIGMA) dissolved in peanut oil to 2 mg/ml was administered via intraperitoneal injection into pups at the indicated times. […] OIR was induced as previously described. Briefly, nursing dams and their pups were maintained at 75±3% O2 in an oxygen supply chamber from P7 to P12; dams were rested in room air for 1 h each day. Dams and pups were returned to room air on P12 and the pups culled on P17 to isolate retinas for immunolabelling; the size of the avascular and neovascular areas was determined with Photoshop CS4 (Adobe Inc.) in images acquired with a SZX16 stereofluorescent microscope (Olympus) equipped with a digital camera (Hamamatsu Photonics Ltd).
as §3

Setting [3] is: P6 retina, Imatinib P2 to P5, versus vehicle.
The mark [4] stands for this setting: P6 retina, Imatinib on P4/5 or P2-5, versus vehicle.
Setting [5] is: P6 retina, Imatinib-treated mice.

Entries after “also recorded” stand apart in the source; their conditions may differ.

As to `O=C(NCCO)c1cccc(-c2cc(Nc3ccc(OC(F)(F)F)cc3)ncn2)c1` [GNF-5, N-(2-Hydroxyethyl)-3-(6-(4(trifluoromethoxy)phenylamino)pyrimidin-4-yl)benzamide], the “suppression of proliferation of BCR-ABL-expressing cells in vivo” value in experiment [1] is “exhibits in vivo efficacy in suppressing the proliferation”.
With `Cc1ccc(NC(=O)c2ccc(CN3CCN(C)CC3)cc2)cc1Nc1nccc(-c2cccnc2)n1` [Imatinib], in experiment [2], the “formation of neovascular tufts (NV area)” value is recorded as “effectively inhibited; also recorded: reduced”. Moreover, in the experiment with HDMEC, the cell spreading entry is given as “reduced” and the “stress fibres / cortical actin (phalloidin)” value was “few stress fibres, but abundant cortical actin”. Moreover, in the experiment with PXN Y118 phosphorylation, the “PXN Y118 phosphorylation (pixel intensities in immunostains and immunoblots)” value is reported as “significantly reduced”. Besides, in the experiment with retinal vasculature (setting [3]), the “FN pixel intensity in IB4-positive (vascular) areas” value is recorded as “no difference; also recorded: not significantly (ns) changed”; the “astrocyte FN deposition ahead of the vascular front” value is recorded as “significantly reduced”; the “vascular extension across the retina” value was “small, but significant reduction; also recorded: Reduced”. For the same compound, in the experiment with retinal vasculature (setting [4]), the “branchpoints behind the vascular front” value was “significant and lmatinib dose-dependent reduction; also recorded: Dose-dependent decrease”; the “tip cells (filopodial bursts at the vascular front)” value is recorded as “significantly fewer”. Also, in the experiment on retinal vasculature (setting [5]), the “filopodia morphology at the vascular front” value is “thin, wavy and misoriented”; the “interaction of tip cells with microglia” value was “not prevented”; the “sprout morphology at the vascular front” value is “longer and wider, with fewer lateral protrusions connecting to neighbouring sprouts”. In the experiment on retinal vasculature (P6 retinal flatmounts, Imatinib versus vehicle), the vascular network density entry is recorded as “reduced”.
